# Experimental data published in ChEMBL document CHEMBL5512647, “Cajaninstilbene acid derivatives conjugated with siderophores of 3-hydroxypyridin-4(1H)-ones as novel antibacterial agents against Gram-negative bacteria based on the Trojan horse strategy” (Eur J Med Chem, 2024).
# Activity calls are given as the source filed them. The calls are words filed in the database; no cut-off is given here.
# Experiments:
# Klebsiella pneumoniae [1] = test: Antibacterial activity against Klebsiella pneumoniae ATCC 700603 measured after 18 to 20 hrs by broth microdilution method; assay type: functional; details: time 18-20 hrs
# Pseudomonas aeruginosa [2] = test: Antibacterial activity against Pseudomonas aeruginosa FB measured after 18 to 20 hrs by broth microdilution method; assay type: functional; details: time 18-20 hrs
# Pseudomonas aeruginosa [3] = test: Antibacterial activity against Pseudomonas aeruginosa 1121 measured after 18 to 20 hrs by broth microdilution method; assay type: functional; details: time 18-20 hrs
# Pseudomonas aeruginosa [4] = test: Antibacterial activity against Pseudomonas aeruginosa PAO1 measured after 18 to 20 hrs by broth microdilution method; assay type: functional; details: time 18-20 hrs
# Escherichia coli [5] = test: Antibacterial activity against Escherichia coli ATCC 25922 measured after 18 to 20 hrs by broth microdilution method; assay type: functional; details: time 18-20 hrs
# Staphylococcus aureus = test: Antibacterial activity against Staphylococcus aureus ATCC 25923 measured after 18 to 20 hrs by broth microdilution method; assay type: functional; details: time 18-20 hrs
# Pseudomonas aeruginosa [6] = test: Antibacterial activity against Pseudomonas aeruginosa 27853 measured after 18 to 20 hrs by broth microdilution method; assay type: functional; details: time 18-20 hrs
# Escherichia coli [7] = test: Antibacterial activity against Escherichia coli ATCC 25922 measured after 18 to 20 hrs in presence of FeIII cultured under CAA medium by broth microdilution method; assay type: functional; details: time 18-20 hrs
# [8] = Cytotoxicity against African green monkey Vero cells at 50 uM measured after 24 hrs by MTT assay; assay type: toxicity, cell-based; details: chlorocebus sabaeus
# Erythrocyte = test: Hemolytic activity in rabbit red blood cells assessed as hemolysis at 12.5 to 50 uM measured after 2 hrs by microplate reader based analysis; assay type: toxicity, cell-based, Oryctolagus cuniculus; details: dose 12.5-50 µM
# Pseudomonas aeruginosa [9] = test: Antibacterial activity against Pseudomonas aeruginosa PAO1 overexpressing fpvA mutant assessed as fold increase in MIC measured after 18 to 20 hrs by broth microdilution method; assay type: functional; details: time 18-20 hrs
# [10] = Acute toxicity in L4 stage of Caenorhabditis elegans at 12.5 to 50 uM; details: dose 12.5-50 µM
# Cell membrane [11] = test: Induction of cytoplasmic membrane permeabilization in Pseudomonas aeruginosa PAO1 assessed as disruption of cell membrane integrity by measuring increase in number of dead cells measured after 2 hrs by PI and SYTO9 staining based confocal laser scanning microscopy analysis; assay type: cell membranes
# Pseudomonas aeruginosa [12] = test: Antibacterial activity against Pseudomonas aeruginosa PAO1 infected in Caenorhabditis elegans assessed as survival rate at 12.5 to 50 uM measured upto 72 hrs relative to control; assay type: functional; details: dose 12.5-50 µM
# [13] = Metal chelating activity assessed as compound-Fe3+ complex formation incubated for 10 mins by CAS assay
# Klebsiella pneumoniae [14] = test: Antibacterial activity against Klebsiella pneumoniae ATCC 700603 measured after 18 to 20 hrs in presence of FeIII cultured under CAA medium by broth microdilution method; assay type: functional; details: time 18-20 hrs
# [15] = Cytotoxicity against African green monkey Vero cells at 100 uM measured after 24 hrs by MTT assay; assay type: toxicity, cell-based; details: chlorocebus sabaeus
# Pseudomonas aeruginosa [16] = test: Antibacterial activity against Pseudomonas aeruginosa PAO1 measured after 18 to 20 hrs in presence of FeIII cultured under CAA medium by broth microdilution method; assay type: functional; details: time 18-20 hrs
# Cell membrane [17] = test: Induction of outer membrane permeabilization in Pseudomonas aeruginosa PAO1 assessed as increase in accumulation of NPN by measuring fluorescence intensity measured for 1 hr by NPN dye uptake assay; assay type: cell membranes
# Pseudomonas aeruginosa [18] = test: Antibacterial activity against Pseudomonas aeruginosa PAO1 infected in Caenorhabditis elegans assessed as improvement in survival rate at 12.5 to 50 uM measured upto 72 hrs; assay type: functional, organism-based; details: dose 12.5-50 µM
# Pseudomonas aeruginosa [19] = test: Antibacterial activity against Pseudomonas aeruginosa 27853 measured after 18 to 20 hrs in presence of FeIII cultured under CAA medium by broth microdilution method; assay type: functional; details: time 18-20 hrs
# Pseudomonas aeruginosa [20] = test: Antibacterial activity against Pseudomonas aeruginosa PAO1 delta-pvds measured after 18 to 20 hrs by broth microdilution method; assay type: functional, organism-based; details: time 18-20 hrs
# Pseudomonas aeruginosa [21] = test: Antibacterial activity against Pseudomonas aeruginosa PAO1 infected in Caenorhabditis elegans assessed as improvement in survival rate at 50 uM measured after 72 hrs; assay type: functional, organism-based
SMILES,MIC (Klebsiella pneumoniae [1]) [µM],MIC (Pseudomonas aeruginosa [2]) [µM],MIC (Pseudomonas aeruginosa [3]) [µM],MIC (Pseudomonas aeruginosa [4]) [µM],MIC (Escherichia coli [5]) [µM],MIC (Staphylococcus aureus) [µM],MIC (Pseudomonas aeruginosa [6]) [µM],other results
CC(C)=CCc1c(OCCCCCCC(=O)NCc2cc(=O)c(O)cn2C)cc(/C=C/c2ccc(F)cc2)c(C(=O)O)c1O,> 250,31.2,15.6,7.8,> 250,> 250,15.6,MIC (Escherichia coli [7]): > 250 µM; Activity [8]: Non-Toxic; Activity (Erythrocyte): Non-Toxic; fold change (FC) (Pseudomonas aeruginosa [9]): 4; Activity [10]: Non-Toxic; Activity (Cell membrane [11]): Dose-Dependent Effect; Survival (Pseudomonas aeruginosa [12]): 50%; Activity [13]: Active; MIC (Klebsiella pneumoniae [14]): > 250 µM; Activity [15]: Toxic; MIC (Pseudomonas aeruginosa [16]): > 250 µM; Activity (Cell membrane [17]): Dose-Dependent Effect; Activity (Pseudomonas aeruginosa [18]): Active; MIC (Pseudomonas aeruginosa [19]): > 250 µM; Activity (Pseudomonas aeruginosa [20]): Active
CCCn1cc(O)c(=O)cc1CNC(=O)CCCCCCOc1cc(/C=C/c2ccc(F)cc2)c(C(=O)O)c(O)c1CC=C(C)C,> 250,> 250,> 250,7.8,> 250,> 250,31.2,–
CC(C)=CCc1c(OCCCCC(=O)NCc2cc(=O)c(O)cn2C)cc(/C=C/c2ccc(F)cc2)c(C(=O)O)c1O,> 250,31.2,31.2,31.2,> 250,> 250,31.2,–
CC(C)=CCc1c(OCCCCCCC(=O)NCc2cc(=O)c(O)cn2C)cc(CSc2ccc(F)cc2)c(C(=O)O)c1O,> 250,> 250,> 250,7.8,> 250,> 250,> 250,–
CC1(C)S[C@@H]2[C@H](NC(=O)[C@H](N)c3ccccc3)C(=O)N2[C@H]1C(=O)O [AMPICILLIN],> 250,> 250,> 250,125,1.95,0.24,> 250,MIC (Escherichia coli [7]): 3.9 µM; MIC (Klebsiella pneumoniae [14]): > 250 µM; MIC (Pseudomonas aeruginosa [16]): 62.5 µM; MIC (Pseudomonas aeruginosa [19]): > 250 µM
CC(C)=CCc1c(OCc2cn(CCCn3cc(O)c(=O)cc3C)nn2)cc(/C=C/c2ccc(F)cc2)c(C(=O)O)c1O,> 250,> 250,> 250,31.2,> 250,> 250,31.2,–
CC(C)=CCc1c(OCc2cn(CCCCCCC(=O)NCc3cc(=O)c(O)cn3C)nn2)cc(/C=C/c2ccc(F)cc2)c(C(=O)O)c1O,> 250,> 250,> 250,15.6,> 250,> 250,> 250,–
CC(C)=CCc1c(OCCCCCCCC(=O)NCc2c(O)c(=O)cc(C)n2C)cc(/C=C/c2ccc(F)cc2)c(C(=O)O)c1O,> 250,> 250,> 250,> 250,> 250,> 250,> 250,–
CC(C)=CCc1c(OCCCCCC(=O)NCc2cc(=O)c(O)cn2C)cc(CSc2ccc(F)cc2)c(C(=O)O)c1O,> 250,> 250,> 250,> 250,> 250,> 250,> 250,–
COc1cc(/C=C/c2ccc(F)cc2)c(C(=O)O)c(O)c1CC=C(C)C,> 250,> 250,> 250,> 250,> 250,15.6,> 250,MIC (Escherichia coli [7]): > 250 µM; Activity [8]: Non-Toxic; Activity [13]: inactive; MIC (Klebsiella pneumoniae [14]): > 250 µM; MIC (Pseudomonas aeruginosa [16]): > 250 µM; MIC (Pseudomonas aeruginosa [19]): > 250 µM; Activity (Pseudomonas aeruginosa [21]): inactive
CC(C)=CCc1c(OCc2cn(Cc3cc(=O)c(O)cn3C)nn2)cc(/C=C/c2ccc(F)cc2)c(C(=O)O)c1O,> 250,> 250,> 250,> 250,> 250,> 250,> 250,–
CC(C)=CCc1c(OCc2cn(CCn3cc(O)c(=O)cc3C)nn2)cc(/C=C/c2ccc(F)cc2)c(C(=O)O)c1O,> 250,250,250,125,> 250,> 250,62.5,–
CC(C)=CCc1c(OCCCCCC(=O)NCc2c(O)c(=O)cc(C)n2C)cc(CSc2ccc(F)cc2)c(C(=O)O)c1O,> 250,> 250,> 250,> 250,> 250,> 250,> 250,–
CC(C)=CCc1c(OCCCCCCC(=O)NCc2c(O)c(=O)cc(C)n2C)cc(CSc2ccc(F)cc2)c(C(=O)O)c1O,> 250,> 250,> 250,> 250,> 250,> 250,> 250,–
CC(C)=CCc1c(OCCCCCCCC(=O)NCc2cc(=O)c(O)cn2C)cc(/C=C/c2ccc(F)cc2)c(C(=O)O)c1O,> 250,31.2,15.6,7.8,> 250,> 250,15.6,MIC (Escherichia coli [7]): > 250 µM; Activity [8]: Non-Toxic; Activity (Erythrocyte): Non-Toxic; fold change (FC) (Pseudomonas aeruginosa [9]): 4; Activity [10]: Non-Toxic; Activity (Cell membrane [11]): Dose-Dependent Effect; Survival (Pseudomonas aeruginosa [12]): 50%; Activity [13]: Active; MIC (Klebsiella pneumoniae [14]): > 250 µM; Activity [15]: Toxic; MIC (Pseudomonas aeruginosa [16]): > 250 µM; Activity (Cell membrane [17]): Active; Activity (Pseudomonas aeruginosa [18]): Active; MIC (Pseudomonas aeruginosa [19]): > 250 µM; Activity (Pseudomonas aeruginosa [20]): Active
CCn1cc(C(=O)O)c(=O)c2cc(F)c(N3CCNCC3)cc21 [NORFLOXACIN],31.2,3.9,3.9,1.95,0.49,7.8,15.6,MIC (Escherichia coli [7]): 0.49 µM; MIC (Klebsiella pneumoniae [14]): 31.2 µM; MIC (Pseudomonas aeruginosa [16]): 1.95 µM; MIC (Pseudomonas aeruginosa [19]): 15.6 µM
CCn1cc(O)c(=O)cc1CNC(=O)CCCCCCOc1cc(/C=C/c2ccc(F)cc2)c(C(=O)O)c(O)c1CC=C(C)C,> 250,> 250,> 250,7.8,> 250,> 250,31.2,–

# Now from value to molecule, other results behind:
MIC (Klebsiella pneumoniae [1]) [µM],MIC (Pseudomonas aeruginosa [2]) [µM],MIC (Pseudomonas aeruginosa [3]) [µM],MIC (Pseudomonas aeruginosa [4]) [µM],MIC (Escherichia coli [5]) [µM],MIC (Staphylococcus aureus) [µM],MIC (Pseudomonas aeruginosa [6]) [µM],SMILES,other results
> 250,> 250,> 250,> 250,> 250,62.5,> 250,COc1cc(CSc2ccc(F)cc2)c(C(=O)O)c(O)c1CC=C(C)C,–
> 250,> 250,> 250,> 250,> 250,> 250,> 250,CC(C)=CCc1c(OCCCCCC(=O)NCc2c(O)c(=O)cc(C)n2C)cc(/C=C/c2ccc(F)cc2)c(C(=O)O)c1O,–
> 250,> 250,31.2,31.2,> 250,> 250,31.2,CC(C)=CCc1c(OCCCCCC(=O)NCc2cc(=O)c(O)cn2C)cc(/C=C/c2ccc(F)cc2)c(C(=O)O)c1O,–
> 250,> 250,> 250,> 250,> 250,> 250,> 250,CCCCCCC(=O)NCc1cc(=O)c(O)cn1C,–
> 250,> 250,> 250,7.81,> 250,> 250,> 250,CC(C)=CCc1c(OCCCCCCC(=O)NCc2c(O)c(=O)cc(C)n2C)cc(/C=C/c2ccc(F)cc2)c(C(=O)O)c1O,–
> 250,> 250,> 250,> 250,> 250,> 250,> 250,CC(C)=CCc1c(OCCCCCCCC(=O)NCc2cc(=O)c(O)cn2C)cc(CSc2ccc(F)cc2)c(C(=O)O)c1O,–
> 250,> 250,> 250,> 250,> 250,> 250,> 250,CC(C)=CCc1c(OCCCCCCCC(=O)NCc2c(O)c(=O)cc(C)n2C)cc(CSc2ccc(F)cc2)c(C(=O)O)c1O,–
> 250,> 250,> 250,> 250,> 250,> 250,> 250,CCCCCCCC(=O)NCc1cc(=O)c(O)cn1C,–
